Data on 35 molecules can be found in patent US10307425B2, “Compositions and methods for treating toxoplasmosis, cryptosporidiosis and other apicomplexan protozoan related diseases” (UNIVERSITY OF WASHINGTON, priority 2015, dated 2019).

The target of the experiment is TgCDPK1 (Toxoplasma gondii, UniProt Q9BJF5). The experiment in a line: biochemical.
Sequence of TgCDPK1 (Q9BJF5 1-507): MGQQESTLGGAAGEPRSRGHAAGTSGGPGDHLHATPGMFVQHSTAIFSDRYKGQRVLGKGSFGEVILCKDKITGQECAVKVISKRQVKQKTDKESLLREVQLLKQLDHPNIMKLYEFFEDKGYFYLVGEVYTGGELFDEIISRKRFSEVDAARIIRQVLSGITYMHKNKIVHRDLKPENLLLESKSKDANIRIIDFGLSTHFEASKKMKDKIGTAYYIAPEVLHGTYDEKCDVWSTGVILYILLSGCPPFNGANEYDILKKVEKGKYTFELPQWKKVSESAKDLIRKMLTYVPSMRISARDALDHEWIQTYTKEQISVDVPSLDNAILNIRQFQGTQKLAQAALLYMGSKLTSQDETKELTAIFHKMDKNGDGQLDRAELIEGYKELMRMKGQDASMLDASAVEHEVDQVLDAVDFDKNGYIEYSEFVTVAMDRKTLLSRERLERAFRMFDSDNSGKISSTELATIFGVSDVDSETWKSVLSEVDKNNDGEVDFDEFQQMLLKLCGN
The IC50 is the concentration that gives 50% inhibition. Read a low IC50 as greater potency. `CN1CC(Cn2nc(-c3ccc4nc(OC5CC5)ccc4c3)c3c(N)ncnc32)C1` [Example 41, 3-(2-cyclopropoxyquinolin-6-yl)-1-((1-methylazetidin-3-yl)methyl)-1H-pyrazolo[3,4-d]pyrimidin-4-amine] came in with an IC50 of 2.8 nM.

Molecule `COCCOc1ccc2cc(-c3nn(CC4CCN(C)CC4)c4ncnc(N)c34)ccc2n1` [Example 42, 3-(2-(2-methoxyethoxy)quinolin-6-yl)-1-((1-methylpiperidin-4-yl)methyl)-1H-pyrazolo[3,4-d]pyrimidin-4-amine] had an IC50 of 8 nM.

Regarding `Nc1ncnc2c1c(-c1ccc3nc(OCC(F)(F)F)ccc3c1)nn2CC1CCNCC1` [Example 44, 1-(piperidin-4-ylmethyl)-3-(2-(2,2,2-trifluoroethoxy)quinolin-6-yl)-1H-pyrazolo[3,4-d]pyrimidin-4-amine], the IC50 came out at 1.4 nM.

In turn, `CC(C)(COCCO)Cn1nc(-c2ccc3nc(OC4CC4)ccc3c2)c2c(N)ncnc21` [Example 45, 2-(3-(4-amino-3-(2-cyclopropoxyquinolin-6-yl)-1H-pyrazolo[3,4-d]pyrimidin-1-yl)-2,2-dimethylpropoxy)ethanol] registered an IC50 of 1200 nM.

Molecule `CC(C)(O)Cn1nc(-c2ccc3nc(OCC(F)(F)F)ccc3c2)c2c(N)ncnc21` [Example 46, 1-(4-amino-3-(2-(2,2,2-trifluoroethoxy)quinolin-6-yl)-1H-pyrazolo[3,4-d]pyrimidin-1-yl)-2-methylpropan-2-ol] showed an IC50 of 18.3 nM.

On to `CCOc1ccc2ccc(-c3nn(CC(C)C)c4ncnc(N)c34)cc2c1` [Example 47, 3-(7-ethoxynaphthalen-2-yl)-1-isobutyl-1H-pyrazolo[3,4-d]pyrimidin-4-amine], for which 10.8 nM corresponded to half-maximal inhibition (IC50).

`CCOc1ccc2ccc(-c3nn(CC4CCNCC4)c4ncnc(N)c34)cc2c1` [Example 48, 3-(7-ethoxynaphthalen-2-yl)-1-(piperidin-4-ylmethyl)-1H-pyrazolo[3,4-d]pyrimidin-4-amine] returned an IC50 of 19.1 nM.

The molecule `CCOc1ccc2cc(-c3nn(CC4(C)COC4)c4ncnc(N)c34)ccc2c1` [Example 49, 3-(6-ethoxynaphthalen-2-yl)-1-((3-methyloxetan-3-yl)methyl)-1H-pyrazolo[3,4-d]pyrimidin-4-amine] gave an IC50 of 2.9 nM.

Take `CCOc1ccc2cc(-c3nn(CC(=O)N4CCOCC4)c4ncnc(N)c34)ccc2c1` [Example 50, 2-(4-amino-3-(6-ethoxynaphthalen-2-yl)-1H-pyrazolo[3,4-d]pyrimidin-1-yl)-1-morpholinoethanone]: the IC50 turned out to be 42.9 nM.

`Nc1ncnc2c1c(-c1ccc3cc(OC4CC4)ccc3c1)nn2CC(=O)N1CCOCC1` [Example 51, 2-(4-amino-3-(6-cyclopropoxynaphthalen-2-yl)-1H-pyrazolo[3,4-d]pyrimidin-1-yl)-1-morpholinoethanone] registered a 50% inhibitory concentration (IC50) of 15.8 nM.

`COCc1ccc2cc(-c3nn(CC(O)(C(F)(F)F)C(F)(F)F)c4ncnc(N)c34)ccc2c1` [Example 52, 2-((4-amino-3-(6-(methoxymethyl)naphthalen-2-yl)-1H-pyrazolo[3,4-d]pyrimidin-1-yl)methyl)-1,1,1,3,3,3-hexafluoropropan-2-ol] had an IC50 of 84.2 nM.

For `Nc1ncnc2c1c(-c1ccc3nc(OC4CC4)ccc3c1)nn2CC(O)(C(F)(F)F)C(F)(F)F` [Example 53, 2-((4-amino-3-(2-cyclopropoxyquinolin-6-yl)-1H-pyrazolo[3,4-d]pyrimidin-1-yl)methyl)-1,1,1,3,3,3-hexafluoropropan-2-ol], the IC50 is 47.3 nM.

Molecule `CC(C)(O)Cn1cc(-c2ccc3nc(OC4CC4)ccc3c2)c2c(N)ncnc21` [Example 55, 1-(4-amino-5-(2-cyclopropoxyquinolin-6-yl)-7H-pyrrolo[2,3-d]pyrimidin-7-yl)-2-methylpropan-2-ol] yielded an IC50 of 3.2 nM.

As to `CC(C)(O)C(C)(C)Cn1nc(-c2ccc3nc(OC4CC4)ccc3c2)c2c(N)ncnc21` [Example 56, 4-(4-amino-3-(2-cyclopropoxyquinolin-6-yl)-1H-pyrazolo[3,4-d]pyrimidin-1-yl)-2,3,3-trimethylbutan-2-ol], 70.8 nM corresponded to half-maximal inhibition (IC50).

`Nc1ncnc2c1c(-c1ccc3nc(OC4CC4)ccc3c1)nn2CC1(O)CCC1` [Example 57, 1-((4-amino-3-(2-cyclopropoxyquinolin-6-yl)-1H-pyrazolo[3,4-d]pyrimidin-1-yl)methyl)cyclobutanol] gave an IC50 of 6.1 nM.

Regarding `CC(C)(O)Cn1cc(-c2ccc3cc(OC4CC4)ccc3c2)c2c(N)ncnc21` [Example 58, 1-(4-amino-5-(6-cyclopropoxynaphthalen-2-yl)-7H-pyrrolo[2,3-d]pyrimidin-7-yl)-2-methylpropan-2-ol], half-maximal inhibition (IC50) was put at 9.1 nM.

Consider `Nc1ncnc2c1c(-c1ccc3cc(OC4CC4)ccc3c1)nn2CC1(O)CCC1` [Example 59, 1-((4-amino-3-(6-cyclopropoxynaphthalen-2-yl)-1H-pyrazolo[3,4-d]pyrimidin-1-yl)methyl)cyclobutanol], for which it took 8.6 nM to reach half-maximal inhibition (IC50).

Take `Nc1ncnc2c1c(-c1ccc3nc(OC4CC4)ccc3c1)nn2CC1(O)CCCC1` [Example 60, 1-((4-amino-3-(2-cyclopropoxyquinolin-6-yl)-1H-pyrazolo[3,4-d]pyrimidin-1-yl)methyl)cyclopentanol]: half-maximal inhibition (IC50) was put at 12.7 nM.

For the molecule `Nc1ncnc2c1c(-c1ccc3cc(OC4CC4)ccc3c1)nn2CC1(O)CCCC1` [Example 61, 1-((4-amino-3-(6-cyclopropoxynaphthalen-2-yl)-1H-pyrazolo[3,4-d]pyrimidin-1-yl)methyl)cyclopentanol], the IC50 came out at 13 nM.

`Nc1ncnc2c1c(-c1ccc3nc(OC4CC4)ccc3c1)nn2CC1(O)CCOCC1` [Example 62, 4-((4-amino-3-(2-cyclopropoxyquinolin-6-yl)-1H-pyrazolo[3,4-d]pyrimidin-1-yl)methyl)-tetrahydro-2H-pyran-4-ol] had an IC50 of 19.2 nM.

The molecule `Nc1ncnc2c1c(-c1ccc3cc(OC4CC4)ccc3c1)nn2CC1(O)CCOCC1` [Example 63, 4-((4-amino-3-(6-cyclopropoxynaphthalen-2-yl)-1H-pyrazolo[3,4-d]pyrimidin-1-yl)methyl)-tetrahydro-2H-pyran-4-ol] had an IC50 of 12.8 nM.

`Nc1ncnc2c1c(-c1ccc3nc(OC4CC4)ccc3c1)nn2CC1(CO)COC1` [Example 64, (3-((4-amino-3-(2-cyclopropoxyquinolin-6-yl)-1H-pyrazolo[3,4-d]pyrimidin-1-yl)methyl)oxetan-3-yl)methanol] had an IC50 of 3.6 nM.

Molecule `Nc1ncnc2c1c(-c1ccc3cc(OC4CC4)ccc3c1)nn2CC1(CO)COC1` [Example 65, (3-((4-amino-3-(6-cyclopropoxynaphthalen-2-yl)-1H-pyrazolo[3,4-d]pyrimidin-1-yl)methyl)oxetan-3-yl)methanol] returned an IC50 of 2.9 nM.

In turn, `COC(C)(C)Cn1nc(-c2ccc3cc(OC4CC4)ccc3c2)c2c(N)ncnc21` [Example 66, 3-(6-cyclopropoxynaphthalen-2-yl)-1-(2-methoxy-2-methylpropyl)-1H-pyrazolo[3,4-d]pyrimidin-4-amine] had an IC50 of 1660 nM.

For the molecule `COC(C)(C)Cn1nc(-c2ccc3nc(OC4CC4)ccc3c2)c2c(N)ncnc21` [Example 67, 3-(2-cyclopropoxyquinolin-6-yl)-1-(2-methoxy-2-methylpropyl)-1H-pyrazolo[3,4-d]pyrimidin-4-amine], the IC50 turned out to be 430 nM.

The molecule `COC(=O)C(C)(C)Cn1nc(-c2ccc3cc(OC4CC4)ccc3c2)c2c(N)ncnc21` [Example 68, methyl 3-(4-amino-3-(6-cyclopropoxynaphthalen-2-yl)-1H-pyrazolo[3,4-d]pyrimidin-1-yl)-2,2-dimethylpropanoate] had an IC50 of 9.7 nM.

For the molecule `COC(=O)C(C)(C)Cn1nc(-c2ccc3nc(OC4CC4)ccc3c2)c2c(N)ncnc21` [Example 69, methyl 3-(4-amino-3-(2-cyclopropoxyquinolin-6-yl)-1H-pyrazolo[3,4-d]pyrimidin-1-yl)-2,2-dimethylpropanoate], the IC50 was determined as 43.2 nM.

`CCOc1ccc2cc(-c3nn(CC4(O)CCNCC4)c4ncnc(N)c34)ccc2c1` [Example 70, 4-((4-amino-3-(6-ethoxynaphthalen-2-yl)-1H-pyrazolo[3,4-d]pyrimidin-1-yl)methyl)piperidin-4-ol]: it took 23.3 nM to reach half-maximal inhibition (IC50).

Consider `CCOc1ccc2cc(-c3nn(CC4(O)CCN(C)CC4)c4ncnc(N)c34)ccc2c1` [Example 71, 4-((4-amino-3-(6-ethoxynaphthalen-2-yl)-1H-pyrazolo[3,4-d]pyrimidin-1-yl)methyl)-1-methylpiperidin-4-ol], for which the IC50 stood at 59.3 nM.

Take `COC(=O)COc1ccc2cc(-c3nn(CC4CCN(C)CC4)c4ncnc(N)c34)ccc2c1` [Example 72, methyl 2-((6-(4-amino-1-((1-methylpiperidin-4-yl)methyl)-1H-pyrazolo[3,4-d]pyrimidin-3-yl)naphthalen-2-yl)oxy)acetate]: inhibition was half-maximal at 49.6 nM (IC50).

`CN1CCC(Cn2nc(-c3ccc4cc(OCC#N)ccc4c3)c3c(N)ncnc32)CC1` [Example 73, 2-((6-(4-amino-1-((1-methylpiperidin-4-yl)methyl)-1H-pyrazolo[3,4-d]pyrimidin-3-yl)naphthalen-2-yl)oxy)acetonitrile] returned an IC50 of 73.8 nM.

In the case of `CCOc1ccc2cc(-c3nn(CC4(C#N)CCNCC4)c4ncnc(N)c34)ccc2c1` [Example 74, 4-((4-amino-3-(6-ethoxynaphthalen-2-yl)-1H-pyrazolo[3,4-d]pyrimidin-1-yl)methyl)piperidine-4-carbonitrile], the IC50 worked out at 2.7 nM.

`CCOc1ccc2cc(-c3nn(CC4(C#N)CCN(C)CC4)c4ncnc(N)c34)ccc2c1` [Example 75, 4-((4-amino-3-(6-ethoxynaphthalen-2-yl)-1H-pyrazolo[3,4-d]pyrimidin-1-yl)methyl)-1-methylpiperidine-4-carbonitrile]: inhibition was half-maximal at 18.3 nM (IC50).

For `CC(C)(Cn1nc(-c2ccc3cc(OC4CC4)ccc3c2)c2c(N)ncnc21)C(=O)O` [Example 76, 3-(4-amino-3-(6-cyclopropoxynaphthalen-2-yl)-1H-pyrazolo[3,4-d]pyrimidin-1-yl)-2,2-dimethylpropanoic acid], the IC50 was 19.4 nM.

`CC(C)(F)Cn1nc(-c2ccc3cc(OC4CC4)ccc3c2)c2c(N)ncnc21` [Example 77, 3-(6-cyclopropoxynaphthalen-2-yl)-1-(2-fluoro-2-methylpropyl)-1H-pyrazolo[3,4-d]pyrimidin-4-amine] showed an IC50 of 6.4 nM.
